From PubChem BioAssay (NCI)
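Briefly, cells in 96-well plates were exposed to five compound concentrations for 48 h, and endpoints were estimated by linear interpolation. Definition used: TGI = concentration required for complete inhibition of growth.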

How the values were obtained:
Assay in all cases: NCI-60 cell line screen, 48 h
[1] = test system: 786-0 renal
[2] = test system: CCRF-CEM leukemia
[3] = test system: A498 renal
[4] = test system: SK-MEL-5 melanoma
[5] = test system: OVCAR-8 ovarian
[6] = test system: TK-10 renal
[7] = test system: OVCAR-3 ovarian
[8] = test system: M14 melanoma
[9] = test system: U251 CNS
[10] = test system: DU-145 prostate
[11] = test system: NCI-H460 lung
[12] = test system: T-47D breast
[13] = test system: LOX IMVI melanoma
[14] = test system: HCC-2998 colon
[15] = test system: OVCAR-5 ovarian
[16] = test system: SK-OV-3 ovarian
[17] = test system: SNB-19 CNS
[18] = test system: NCI-H522 lung
[19] = test system: UO-31 renal
[20] = test system: HCT-116 colon
[21] = test system: KM12 colon
[22] = test system: COLO 205 colon
[23] = test system: OVCAR-4 ovarian
[24] = test system: MALME-3M melanoma
[25] = test system: HCT-15 colon
[26] = test system: SW-620 colon
[27] = test system: HL-60(TB) leukemia
[28] = test system: SR leukemia
[29] = test system: SF-268 CNS
[30] = test system: MDA-MB-435
[31] = test system: SN12C renal
[32] = test system: K-562 leukemia
[33] = test system: HOP-92 NSCLC
[34] = test system: UACC-257 melanoma
[35] = test system: PC-3 prostate
[36] = test system: MDA-MB-231 breast
[37] = test system: A549 NSCLC
[38] = test system: HS 578T breast
[39] = test system: MOLT-4 leukemia
[40] = test system: NCI/ADR-RES ovarian
[41] = test system: EKVX NSCLC
[42] = test system: SK-MEL-28 melanoma
[43] = test system: ACHN renal
[44] = test system: RXF 393 renal
[45] = test system: CAKI-1 renal
[46] = test system: SK-MEL-2 melanoma
[47] = test system: MDA-N
[48] = test system: MCF7 breast
[49] = test system: SNB-75 CNS
[50] = test system: UACC-62 melanoma
[51] = test system: NCI-H23 lung
[52] = test system: BT-549 breast
[53] = test system: SF-539 CNS
[54] = test system: NCI-H226 lung
[55] = test system: HOP-62 NSCLC
[56] = test system: SF-295 CNS
[57] = test system: HT29 colon

O=S1(=O)N=C(SCc2ccccc2)N(c2ccccc2)c2ccncc21
TGI [1]: > 100 µM | TGI [2]: > 100 µM | TGI [3]: 59.9 µM | TGI [4]: > 100 µM | TGI [5]: > 100 µM | TGI [6]: > 100 µM | TGI [7]: > 100 µM | TGI [8]: > 100 µM | TGI [9]: > 100 µM | TGI [10]: > 100 µM | TGI [11]: > 100 µM | TGI [12]: > 100 µM | TGI [13]: > 100 µM | TGI [14]: > 100 µM | TGI [15]: > 100 µM | TGI [16]: > 100 µM | TGI [17]: > 100 µM | TGI [18]: 56.3 µM | TGI [19]: 46.8 µM | TGI [20]: > 100 µM | TGI [21]: > 100 µM | TGI [22]: 38.3 µM | TGI [23]: > 100 µM | TGI [24]: > 100 µM | TGI [25]: > 100 µM | TGI [26]: > 100 µM | TGI [27]: > 100 µM | TGI [28]: > 100 µM | TGI [29]: > 100 µM | TGI [30]: > 100 µM | TGI [31]: > 100 µM | TGI [32]: > 100 µM | TGI [33]: 82.7 µM | TGI [34]: > 100 µM | TGI [35]: > 100 µM | TGI [36]: > 100 µM | TGI [37]: > 100 µM | TGI [38]: 83.4 µM | TGI [39]: > 100 µM | TGI [40]: 91.1 µM | TGI [41]: > 100 µM | TGI [42]: > 100 µM | TGI [43]: > 100 µM | TGI [44]: > 100 µM | TGI [45]: > 100 µM | TGI [46]: > 100 µM | TGI [47]: 89.6 µM | TGI [48]: > 100 µM | TGI [49]: > 100 µM | TGI [50]: > 100 µM | TGI [51]: > 100 µM | TGI [52]: 94.4 µM | TGI [53]: > 100 µM | TGI [54]: > 100 µM | TGI [55]: > 100 µM | TGI [56]: > 100 µM | TGI [57]: > 100 µM
